The source of these data is paper PMC5997364, “OG716: Designing a fit-for-purpose lantibiotic for the treatment of Clostridium difficile infections” (PLoS ONE, 2018).

The conditions of data set [1]: 5% D-mannitol.
Protocol: (§1) To that end, approximately 10 mg of each compound was weighed on a high-precision balance and dispensed into a 1.5 mL microfuge tube.
Data set [2] relates to C. difficile. Description: microbe, parasite or virus in culture. The class given is cell-based, Clostridium difficile. The procedure:
MIC testing for C. difficile was performed by Eurofins Panlabs Taiwan LTD based on modifications from the CLSI M11-A8 broth dilution method for Bacteroides fragilis susceptibility testing. Briefly, Reinforced Clostridial Medium (RCM) was pre-reduced by over-night incubation in an anaerobic chamber (80% N2, 10% CO2, and 10% H2) prior to use. MU1140 and variants were dissolved in 100% DMSO, diluted by 2-fold serial dilution in 100% DMSO, for a total of 11 concentrations. A 4 μL aliquot of each dilution was added to 96 μL RCM in wells of a 96 well plate using a Biomek FX instrument (Beckman Coulter, USA), followed by the addition of C. difficile suspension, in RCM, 100 μL/well. The final bacterial count was 2 x 10^5 to 1 x 10^6 colony forming units/mL, in 200 μL per assay well. […] Assay plates were incubated at 35°C for 46 to 48 hr in the anaerobic chamber (A35 Anaerobic Workstation, Don Whitley, UK). Following incubation, test plates were visually examined and each well was scored for growth then the MIC was recorded as the lowest concentration that results in complete inhibition of growth. Each test substance was evaluated in duplicate. Vehicle-control and vancomycin were used as blank and positive controls, respectively. The MIC values of the vancomycin controls were consistent with the historical data against test strains (data not shown).

The conditions of data set [3]: 1.0 mg/mL in water.
Protocol: Five aliquots of each compound were prepared by dissolving them to 1.0 mg/mL in HPLC grade water (Fisher Scientific, USA). A total of 2 aliquots of the solution were placed in a 37°C stability chamber, and 2 aliquots were placed in a 50°C chamber. Samples were collected on days 0, 2 and 7, centrifuged at 12,000 x g for 5 min, and the supernatants were transferred to a fresh tube. Each sample was diluted 1:4 with 0.05% trifluoroacetic acid (TFA) and the purity and quantity were analyzed by HPLC as described above.
The conditions of data set [4]: Solubility 5% D-mannitol, 5% D-mannitol in water, visual assessment.
Protocol: as §1
The conditions of data set [5]: FaSSIF with trypsin/chymotrypsin.
Protocol: FaSSIF was supplemented with 2% pancreatin (w/v), 6 μg/mL of trypsin and 6 μg/mL of α-chymotrypsin and was prepared as previously reported [22]. All proteases were from Fisher ScientificSamples were collected at the same frequency as in the FaSSGF study, and analyzed using the same method.
For a further data set, the system named is C. difficile UNT103-1. Briefly: Golden Syrian hamster model of CDAD, oral gavage efficacy. The class given is in vivo. The procedure: In vivo efficacy was performed as previously described in detail, except that the compounds were administered via oral gavage (rather than the illeal cannulation method used previously). This study was carried out in accordance with protocols 2016–0015 approved by the Institutional Animal Care and Use Committee (IACUC) at the University of North Texas Health Science Center (UNTHSC). IACUC established guidelines ensuring that approved protocols are in compliance with federal and state laws regarding animal care and use activity at UNTHSC. The UNTHSC animal program in USDA registered (74-R0081) and fully AAALAC accredited.
Briefly, 7–8 weeks old Male Golden Syrian hamsters were used in this study, and weighted 100–120 g (Charles River Laboratories, Wilmington, MA). C. difficile UNT103-1 (VA11, non epidemic (cdtB-, REA group J) was received from Curtis Donskey, Cleveland VA Hospital, Cleveland, OH) and cultured as previously described. The isolate has been previously utilized for the hamster model by the University of North Texas Health Sciences Center (UNTHSC). The infection inoculum was tested to determine the ratio of spores to vegetative cells. In accordance with the details in Table 2, a total of 60 animals were used in this study. Animals were randomized into the 10 study groups (N = 6 per group) prior to treatment. On Day 0, animals were infected with 5.63 x 10^7 total CFU of which 2.81 x 10^4 represented inoculated spores. On Day 1, at 24 hrs post-infection, all animals received a single subcutaneous injection of clindamycin (10 mg/kg). Test articles in 5% mannitol were then administered orally 3x per day (TID), starting on Day 2 at 18 hours after clindamycin injection, for 5 consecutive days (Days 2 through 6). USP-grade vancomycin (positive control) was prepared in water for injection (WFI) at 50 mg/mL and stored refrigerated during the course of the study. […] Data was analyzed using GraphPad Prism 6.0d. […]

The test system of data set [6] is C. difficile. Set-up: method as in PMID 20974818. The settings on record: cited from earlier work.

Values after ≈ are worked out from the molar mass of the structure shown. Values joined by “and” are separate entries in the source; they are usually repeats but may differ in a detail not shown here. Equal values may be shown once. Read-outs that look alike come from different tables or passages of the source. Ends that are not written are not given here.
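Throughout, for Forced degradation Δ Conc: purity and concentration determined by HPLC on aqueous solutions kept in a stability chamber, with samples analyzed at day 0 and after incubation.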
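Throughout, for Forced degradation Δ Purity: purity and concentration determined by HPLC on aqueous solutions kept in a stability chamber, with samples analyzed at day 0 and after incubation.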

For the molecule `C=C1NC(=O)[C@H](Cc2c[nH]c3ccccc23)NC(=O)[C@H](NC(=O)[C@H](CCCCN)NC(=O)[C@@H](N)[C@@H](C)CC)CSC[C@@H](C(=O)N[C@H]2C(=O)N3CCC[C@H]3C(=O)NCC(=O)N[C@H](C(=O)N[C@@H](C)C(=O)N[C@@H](CC(=O)O)C(=O)N/C(=C\C)C(=O)NCC(=O)N[C@@H]3CSC[C@@H]4NC(=O)[C@H](Cc5ccc(O)cc5)NC(=O)[C@@H](CS/C=C\NC4=O)NC(=O)[C@H](CC(N)=O)NC(=O)[C@H](Cc4ccccc4)NC3=O)CS[C@H]2C)NC(=O)[C@H](CC(C)C)NC1=O` [OG703], the “solubility reduced relative to OG706” value in data set [1] is recorded as 2-3 fold. In the data set on C. difficile [2], the “MIC 50” value was found to be 1 µg/mL (≈ 0.457 µM), the “MIC 90” value stood at 2 µg/mL (≈ 0.913 µM), the “MIC Mode” value is 1 µg/mL (≈ 0.457 µM) and the “MIC Range” value lay within 0.5 to 2 µg/mL. In addition, in the data set on C. difficile [2], the Minimum Inhibitory Concentration C. difficile 103-1 stood at 0.5 µg/mL, the Minimum Inhibitory Concentration C. difficile 107-1 was found to be 2 µg/mL, the Minimum Inhibitory Concentration C. difficile ATCC 9689 was 2 µg/mL and the Minimum Inhibitory Concentration C. difficile ATCC 43597 was found to be 1 µg/mL. Also, in the data set on C. difficile [2], the Minimum Inhibitory Concentration C. difficile ATCC BAA-1805 worked out at 1 µg/mL, the Minimum Inhibitory Concentration C. difficile ATCC BAA-1808 stood at 1 µg/mL, the Minimum Inhibitory Concentration C. difficile ATCC BAA-1874 came to 0.5 µg/mL and the Minimum Inhibitory Concentration C. difficile ATCC BAA-1875 came to 1 µg/mL. In addition, in data set [3] (2 Days at 37°C), the “Forced degradation Δ Conc” value was -9.2% and -9%; the “Forced degradation Δ Purity” value is -0.97%. In addition, in data set [3] (2 Days at +50°C), the “Forced degradation Δ Conc” value was -15% and the “Forced degradation Δ Purity” value was -1.74%. In data set [3] (7 Days at 37°C), the “Forced degradation Δ Conc” value is -13.4% and -13%; the “Forced degradation Δ Purity” value is -1.04%. Further, in data set [3] (7 Days at +50°C), the “Forced degradation Δ Conc” value is -30.3% and -30%; the “Forced degradation Δ Purity” value is -4.79%. In data set [4], this molecule showed a solubility of 7 mg/mL (≈ 3200 µM).
Regarding `C=C1NC(=O)[C@H](Cc2c[nH]c3ccccc23)NC(=O)[C@H](NC(=O)[C@H](CCCCN)NC(=O)[C@@H](N)[C@@H](C)CC)CSC[C@@H](C(=O)N[C@H]2C(=O)N3CCC[C@H]3C(=O)NCC(=O)N[C@H](C(=O)N[C@@H](C)C(=O)N[C@@H](C)C(=O)N/C(=C\C)C(=O)NCC(=O)N[C@@H]3CSC[C@@H]4NC(=O)[C@H](Cc5ccc(O)cc5)NC(=O)[C@@H](CS/C=C\NC4=O)NC(=O)[C@H](CC(N)=O)NC(=O)[C@H](Cc4ccccc4)NC3=O)CS[C@H]2C)NC(=O)[C@H](CC(C)C)NC1=O` [OG711], in the data set on C. difficile [2], the “MIC 50” value is 0.5 µg/mL (≈ 0.233 µM), the “MIC 90” value was found to be 1 µg/mL (≈ 0.466 µM), the “MIC Mode” value turned out to be 0.25 µg/mL (≈ 0.117 µM) and the “MIC Range” value was in the range of 0.25 to 1 µg/mL. In the data set with C. difficile [2], this molecule had a Minimum Inhibitory Concentration C. difficile 103-1 of 0.25 µg/mL, a Minimum Inhibitory Concentration C. difficile 107-1 of 1 µg/mL, a Minimum Inhibitory Concentration C. difficile ATCC 9689 of 1 µg/mL and a Minimum Inhibitory Concentration C. difficile ATCC 43597 of 0.5 µg/mL. Moreover, in the data set with C. difficile [2], the Minimum Inhibitory Concentration C. difficile ATCC BAA-1805 worked out at 0.25 µg/mL, the Minimum Inhibitory Concentration C. difficile ATCC BAA-1808 amounted to 0.25 µg/mL, the Minimum Inhibitory Concentration C. difficile ATCC BAA-1874 worked out at 0.5 µg/mL and the Minimum Inhibitory Concentration C. difficile ATCC BAA-1875 is 0.5 µg/mL. The “improvement in half-life in FaSSIF (stability to proteolytic degradation) relative to OG253” value in data set [5] was more than 50 fold. Further, in data set [3] (2 Days at 37°C), the “Forced degradation Δ Conc” value is -12.5% and -13%; the “Forced degradation Δ Purity” value is -1.24%. Besides, in data set [3] (2 Days at +50°C), the “Forced degradation Δ Conc” value was -8.7% and -9%; the “Forced degradation Δ Purity” value is listed as -0.61%. In data set [3] (7 Days at 37°C), the “Forced degradation Δ Conc” value is -10.8% and -11%; the “Forced degradation Δ Purity” value is listed as -0.63%. In data set [3] (7 Days at +50°C), the “Forced degradation Δ Conc” value was -40.1% and -40%; the “Forced degradation Δ Purity” value is listed as -2.94%. The molecule further registered a solubility in data set [4] of 12 to 18 mg/mL (≈ 5590 to 8390 µM).
With `C=C1NC(=O)[C@H](Cc2c[nH]c3ccccc23)NC(=O)[C@H](NC(=O)[C@H](CCCCN)NC(=O)[C@@H](N)[C@@H](C)CC)CSC[C@@H](C(=O)N[C@H]2C(=O)N3CCC[C@H]3C(=O)NCC(=O)N[C@H](C(=O)N[C@@H](C)C(=O)N[C@@H](CC(N)=O)C(=O)N/C(=C\C)C(=O)NCC(=O)N[C@@H]3CSC[C@@H]4NC(=O)[C@H](Cc5ccccc5)NC(=O)[C@@H](CS/C=C\NC4=O)NC(=O)[C@H](CC(N)=O)NC(=O)[C@H](Cc4ccccc4)NC3=O)CS[C@H]2C)NC(=O)[C@H](CC(C)C)NC1=O` [OG718], in the data set with C. difficile [2], the “MIC 50” value is 0.5 µg/mL (≈ 0.23 µM), the “MIC 90” value amounted to 1 µg/mL (≈ 0.46 µM), the “MIC Mode” value was 0.5 µg/mL (≈ 0.23 µM) and the “MIC Range” value was in the range of 0.25 to 1 µg/mL. Moreover, in the data set with C. difficile [2], the Minimum Inhibitory Concentration C. difficile 103-1 turned out to be 0.25 µg/mL, the Minimum Inhibitory Concentration C. difficile 107-1 amounted to 0.5 µg/mL, the Minimum Inhibitory Concentration C. difficile ATCC 9689 was determined as 0.5 µg/mL and the Minimum Inhibitory Concentration C. difficile ATCC 43597 stood at 0.5 µg/mL. In the data set on C. difficile [2], this molecule came in with a Minimum Inhibitory Concentration C. difficile ATCC BAA-1805 of 0.5 µg/mL, a Minimum Inhibitory Concentration C. difficile ATCC BAA-1808 of 0.25 µg/mL, a Minimum Inhibitory Concentration C. difficile ATCC BAA-1874 of 0.5 µg/mL and a Minimum Inhibitory Concentration C. difficile ATCC BAA-1875 of 1 µg/mL. Besides, in data set [3] (2 Days at 37°C), the “Forced degradation Δ Conc” value is -9.1% and -9%; the “Forced degradation Δ Purity” value is given as -2.07%. In data set [3] (2 Days at +50°C), the “Forced degradation Δ Conc” value was -29.4% and -29%; the “Forced degradation Δ Purity” value is -4.90%. In data set [3] (7 Days at 37°C), the “Forced degradation Δ Conc” value is given as -21% and the “Forced degradation Δ Purity” value is -7.42%. Further, in data set [3] (7 Days at +50°C), the “Forced degradation Δ Conc” value is -43.8% and -44%; the “Forced degradation Δ Purity” value is recorded as -12.84%. This molecule also gave a solubility in data set [4] of more than 24 mg/mL.
As for `CN[C@H](CC(C)C)C(=O)N[C@H]1C(=O)N[C@@H](CC(N)=O)C(=O)N[C@H]2C(=O)N[C@H]3C(=O)N[C@H](C(=O)N[C@H](C(=O)O)c4cc(O)cc(O)c4-c4cc3ccc4O)[C@H](O)c3ccc(c(Cl)c3)Oc3cc2cc(c3O[C@@H]2O[C@H](CO)[C@@H](O)[C@H](O)[C@H]2O[C@H]2C[C@](C)(N)[C@H](O)[C@H](C)O2)Oc2ccc(cc2Cl)[C@H]1O` [Vancomycin, reference compound], the “Minimum Inhibitory Concentration C. difficile Range” value with C. difficile [2] (8 C. difficile strains) fell in the range of 0.5 to 4 mg/mL. In the data set with C. difficile [2] (Clostridioides difficile), this molecule returned an MIC 50 of 0.5 µg/mL (≈ 0.345 µM) and an MIC 90 of 4 µg/mL (≈ 2.76 µM). In addition, the “MIC Range” value in the data set on C. difficile [2] (panel of C. difficile strains, n = 8) fell in the range of 0.5 to 4 µg/mL. The same molecule gave a survival in the data set on C. difficile UNT103-1 (20 mg/kg oral gavage x 5 days (test compounds TID, vancomycin QD), outcome of the study (Day 21)) of 83%. Also, in the data set on C. difficile UNT103-1 (20 mg/kg oral gavage x 5 days, cecal contents at death or Day 21), the “C. difficile spore count of cecal samples” value is on record as 2.96 log10 CFU/mL. Besides, the “spore counts compared to control (vehicle-treated) animals” value in the data set with C. difficile UNT103-1 (cecal contents at death or Day 21) is reported as “significantly lower”.
“gallidermin (IASKFLCTPGCAKTGSFNSYCC; also: lantibiotic (lanthionine rings and dehydro residues not given here); UniProt P21838 31-52, looked up) [lantibiotic / cationic antimicrobial peptide]”: in the data set with C. difficile [6] (cpr induction in vitro), the “MIC increase of C. difficile” value was 2–4 fold. Also, the “MIC of C. difficile” value with C. difficile [6] (level reached after MIC increase (cpr induction)) is given as ~ 1 μg/ml.
